Assay: Antioxidant activity in soybean large unilamellar vesicles assessed as inhibition of AAPH-induced lipid peroxidation compound added prior to AAPH induction measured after 90 mins by UV-visible absorption spectrometric analysis
Assay type: physicochemical

IC50 [nM] | Compound
1000 | Cc1cc2[nH]c3ccccc3c2cc1O
800 | VITAMIN E
160 | CCCCCCCC/C=C/CCCCCCCc1c(C)c(O)cc2c1[nH]c1ccccc12

Compound | IC50 [nM]
O=c1c(O)c(-c2ccc(O)c(O)c2)oc2cc(O)cc(O)c12 [QUERCETIN] | 200
